{
  "source": "patent US4310660A",
  "about": "“Lincomycin compounds” (The Upjohn Company, priority 1980, dated 1982)",
  "key": {"[1]": {"test": "Acute I.P. toxicity in the mouse (LD50)", "type": "in vivo", "source_text": "This value is the resulting mean of two separate and identical LD50 determinations."}, "Clostridium botulinum A": {"test_system": "Clostridium botulinum A", "test": "microbe, parasite or virus in culture", "type": "cell-based", "details": "UC6506, read-out: Minimal Inhibitory Concentration (MIC)"}, "[2]": {"test_system": "Bacteroides melaninogenicus", "test": "MIC vs. anaerobic bacteria, agar dilution", "type": "cell-based", "details": "UC6326, UC 6326, read-out: Minimal Inhibitory Concentration (MIC)"}, "[3]": {"test_system": "Fusobacterium necrophorum", "test": "MIC vs. anaerobic bacteria, agar dilution", "type": "cell-based", "details": "UC6568, UC 6568, read-out: Minimal Inhibitory Concentration (MIC)"}, "Clostridium sordellii": {"test_system": "Clostridium sordellii", "test": "MIC vs. anaerobic bacteria, agar dilution", "type": "cell-based", "details": "Paraclostridium sordellii, UC6505, UC 6505, read-out: Minimal Inhibitory Concentration (MIC)", "method": "(§1) The procedure for the above test is as follows: Serial two-fold dilutions of drug are prepared in 1.0 ml volumes of Schaedler Broth, and 9.0 ml of molten (47° C.) Wilkens-Chalgren Agar Medium, infra, is added to the antibiotic-supplemented broth. After mixing with the antibiotic, the agar is poured into 100 mm×20 mm petri dishes. The dishes are allowed to stand on the bench overnight prior to inoculation.\n(§2) Cultures are streaked on Wilkens-Chalgren Agar, and grown for 48 hours at 37° C. in a BBL Anaerobe Jar. Growth from the plate is harvested, and a cell suspension is made in Schaedler broth to equal the turbidity of a 0.5 McFarland Standard (10^8 cells/ml). The suspension is pipetted into the wells of a Steers replicator, and approx. 1-2 μl is delivered to the surface of the agar plates. After allowing a few minutes for the inoculum to dry, the plates are placed in a BBL Anaerobe Jar (atomsphere of 85% N, 10% H, 5% CO2) and incubated at 37° C. for 72 hours.\n(§3) The Minimal Inhibitory Concentration (MIC) is read as the least amount of drug that inhibits growth. A very faint film of growth, or <3 is colonies is considered negative."}, "Clostridium novyi B": {"test_system": "Clostridium novyi B", "test": "MIC vs. anaerobic bacteria, agar dilution", "type": "cell-based", "details": "UC6329, UC 6329, read-out: Minimal Inhibitory Concentration (MIC)", "method": "as §1, §2, §3"}, "Clostridium tentani": {"test_system": "Clostridium tentani", "test": "MIC vs. anaerobic bacteria, agar dilution", "type": "cell-based", "details": "UC6521, UC 6521, read-out: Minimal Inhibitory Concentration (MIC)", "method": "as §1, §2, §3"}, "D. pneumoniae III": {"test_system": "D. pneumoniae III", "test": "Mouse Protection Test", "type": "in vivo", "details": "strain MPI III, two experiments listed; for ED50: Streptococcus pneumoniae, 168 h, read-out: Median Protective Dose (CD50); for Median Protective Dose (CD50): 10080 min, listed as U-57930E . Hcl", "source_text": "Immediately before use, the suspensions were thawed quickly and properly diluted. Infection was via the intrapertioneal route.\nTreatment of the infected groups was begun immediately and continued once per day for 4 days (first 24 hr period=1). Groups of untreated mice served as virulence controls for the culture.\nSeven days after the treatment regimen was begun the surviving animals were sacrificed and the median protective dose of the antibiotic calculated on the basis of mortality rates in the treatment groups. The median protective dose and its 95% confidence interval were calculated according to the method of Spearmen & Karber as programmed on a 360 digital computer.\nU-60,970E was also tested in vivo in standard laboratory mice which were experimentally infected with bacteria. The test was conducted in comparison with U-57,930E."}, "Clostridium cadaveris": {"test_system": "Clostridium cadaveris", "test": "MIC vs. anaerobic bacteria, agar dilution", "type": "cell-based", "details": "UC6510, UC 6510, read-out: Minimal Inhibitory Concentration (MIC)"}, "Actinomyces naeslundii": {"test_system": "Actinomyces naeslundii", "test": "MIC vs. anaerobic bacteria, agar dilution", "type": "cell-based", "details": "UC5920, read-out: Minimal Inhibitory Concentration (MIC)"}, "Clostridium bifermentans": {"test_system": "Clostridium bifermentans", "test": "MIC vs. anaerobic bacteria, agar dilution", "type": "cell-based", "details": "Paraclostridium bifermentans, UC6507, UC 6507, read-out: Minimal Inhibitory Concentration (MIC)"}, "[4]": {"test_system": "Bacteroides thetaiotaomicon", "test": "MIC vs. anaerobic bacteria, agar dilution", "type": "cell-based", "details": "UC6512, UC 6512, read-out: Minimal Inhibitory Concentration (MIC)"}, "Propionibacterium acnes": {"test_system": "Propionibacterium acnes", "test": "MIC vs. anaerobic bacteria, agar dilution", "type": "cell-based", "details": "Cutibacterium acnes"}, "Peptococcus aerogenes": {"test_system": "Peptococcus aerogenes", "test": "MIC vs. anaerobic bacteria, agar dilution", "type": "cell-based", "details": "Peptoniphilus asaccharolyticus, UC6319, UC 6319, read-out: Minimal Inhibitory Concentration (MIC)"}, "Peptococcus magnus": {"test_system": "Peptococcus magnus", "test": "MIC vs. anaerobic bacteria, agar dilution", "type": "cell-based", "details": "Finegoldia magna, UC6258, UC 6258, read-out: Minimal Inhibitory Concentration (MIC)"}, "Fusobacterium varium": {"test_system": "Fusobacterium varium", "test": "MIC vs. anaerobic bacteria, agar dilution", "type": "cell-based", "details": "UC6052, UC 6052, read-out: Minimal Inhibitory Concentration (MIC)"}, "[5]": {"test_system": "Peptostreptococcus anaerobius", "test": "MIC vs. anaerobic bacteria, agar dilution", "type": "cell-based", "details": "UC6321, UC 6321, read-out: Minimal Inhibitory Concentration (MIC)"}},
  "note": "Structures can show the parent of a compound that is named as a salt. Where two headings read alike, the source gives them in different places.",
  "data": [
    {"compound": "CC[C@@H]1CCN[C@H](C(=O)N[C@@H]([C@H]2O[C@H](SC)[C@H](O)[C@@H](O)[C@H]2O)[C@H](C)Cl)C1", "note": "[U-57,930E, 4-Cis-ethyl-1-pipecolic acid amide of 7-Cl-MTL.HCl]", "values": [
      {"measurement": "LD50 as multiple of the LD50 for clindamycin HCl", "setting": "[1]", "result": "approximately 2 times"},
      {"measurement": "acute I.P. toxicity relative to clindamycin HCl", "setting": "[1]", "result": "approximately one-half"},
      {"measurement": "LD50", "setting": "[1]; in vivo, ip, mean of two determinations", "result": 592, "unit": "mg/kg"},
      {"measurement": "MIC", "setting": "Clostridium botulinum A", "result": "≤ 0.03", "unit": "µg/mL"},
      {"measurement": "MIC", "setting": "[2]", "result": 0.06, "unit": "µg/mL"},
      {"measurement": "MIC", "setting": "[3]", "result": 0.06, "unit": "µg/mL"},
      {"measurement": "MIC", "setting": "Clostridium sordellii", "result": 0.5, "unit": "µg/mL"},
      {"measurement": "MIC", "setting": "Clostridium novyi B", "result": 0.12, "unit": "µg/mL"},
      {"measurement": "MIC", "setting": "Clostridium tentani", "result": "≤ 0.03", "unit": "µg/mL"},
      {"measurement": "ED50", "setting": "D. pneumoniae III; po, oral", "result": 14.4, "unit": "mg/kg"},
      {"measurement": "ED50", "setting": "D. pneumoniae III; sc, subcutaneous", "result": 2.68, "unit": "mg/kg"},
      {"measurement": "Median Protective Dose (CD50)", "setting": "D. pneumoniae III; oral", "result": "16.49 (10.51-25.88) mg/kg"},
      {"measurement": "Median Protective Dose (CD50)", "setting": "D. pneumoniae III; subcutaneous", "result": "2.5 (1.69-3.69) mg/kg"},
      {"measurement": "MIC", "setting": "Clostridium cadaveris", "result": 0.06, "unit": "µg/mL"},
      {"measurement": "MIC", "setting": "Actinomyces naeslundii", "result": 0.25, "unit": "µg/mL"},
      {"measurement": "MIC", "setting": "Clostridium bifermentans", "result": 0.06, "unit": "µg/mL"},
      {"measurement": "MIC", "setting": "[4]", "result": 0.5, "unit": "µg/mL"},
      {"measurement": "MIC", "setting": "Propionibacterium acnes; UC6564, UC 6564, read-out: Minimal Inhibitory Concentration (MIC)", "result": 0.12, "unit": "µg/mL"},
      {"measurement": "MIC", "setting": "Propionibacterium acnes; UC6575, UC 6575, read-out: Minimal Inhibitory Concentration (MIC)", "result": 0.06, "unit": "µg/mL"},
      {"measurement": "MIC", "setting": "Peptococcus aerogenes", "result": 0.06, "unit": "µg/mL"},
      {"measurement": "MIC", "setting": "Peptococcus magnus", "result": 0.06, "unit": "µg/mL"},
      {"measurement": "MIC", "setting": "Fusobacterium varium", "result": 3.9, "unit": "µg/mL"},
      {"measurement": "MIC", "setting": "[5]", "result": 0.12, "unit": "µg/mL"}
    ]}
  ]
}
